Data from patent US9399145B2, “Nanoscale neuromodulating platform for retina neuron activation apparatus and method” (The Board of Trustees of the University of Illinois, priority 2005, dated 2016).

What was measured:
[1] = biological target: T1, α1β2γ2 GABAARs (rat α1, rat β2 and human γ2S) (UniProt P18507+P62813+P63138); experiment: Two-electrode voltage clamp of α1β2γ2 GABAAR-expressing Xenopus oocytes; format: cell-based; settings: for rate constant 1/τ of UV-induced decrease in membrane current (de-potentiation): 3 μM GABA and 1 μM MPC088
T1 construct: expressed in transfected cells; host or cells: Xenopus laevis oocytes
Source text: Purple and gray bars indicate periods of presentation of UV light (purple) and high-intensity visible light (High-Vis) (gray), respectively. […] These amplitude determination conditions are denoted by numbers beneath the waveform in FIG. 35d.
In each of the MPC088 experiments, the cis-dominant form was generated by UV light during static bathing. […] Numbers beneath the waveform in FIG. 2(c) denote amplitude determination conditions for that experiment.
Oocytes expressing α1β2γ2 receptors (rat α1, rat β2 and human γ2S) were prepared and studied by two-electrode voltage-clamp recording^58 (holding potential: −70 mV; amplifier: GeneClamp500B; Axon Instruments, Foster City, Calif.). Unless otherwise indicated, oocytes were superfused with Ringer solution (physiological saline) at a rate of ˜1 mL/min. The experiments of FIGS. 35d-e, 36c-e and 47 involved periods of static bathing, i.e., halted superfusion. The γ2(A79C) subunit was prepared by site-directed mutagenesis. Oocyte electrophysiological experiments were carried out in room light. A UV light-emitting diode (peak wavelength: 365 nm; Hamamatsu Photonics, Japan) and a microscope illuminator (white light; Schott Fostec, Auburn, N.Y.) provided UV and visible stimulating light. As measured at the position of the oocyte, the intensity of the UV light at 365 nm was 220 μW/mm^2. At 440 nm, the nominal strength of the visible (white) light (referred to as high-intensity visible light) was 28 μW/mm^2, and that of the ambient room illumination was 0.045 μW/mm^2. In all experiments, low-intensity visible light from the microscope illuminator (3 μW/mm^2 at 440 nm) was present at all times except those involving high-intensity visible illumination. Electrophysiological data were obtained using Clampex 8.2 (Axon Instruments), analyzed using Clampfit 10.0 (Axon Instruments) and OriginPro7.5 (OriginLab, Northampton, Mass.). All statistical analysis employed a two-sample t-test.

[2] = system: GABAARs of cerebellar PNs; experiment: Test for direct agonist activity on Purkinje neurons (recirculating MPC088, no exogenous GABA); format: cell-based, mouse
Experimental: To test for direct agonist activity of MPC088 on PNs, cerebellar slices were perfused with recirculating 30 μM MPC088 (the maximal MPC088 concentration that could be reliably maintained solubilized in bicarbonate-buffered solution). MPC088 was converted to cis-dominant form by a 2-min exposure to UV light (LED, 365 nm/160 mW, Mouser, Inc., Mansfield, Tex.; LED driver, 700 mA BuckPuck DC Driver, Quadica Developments, Inc., Brantford, Ontario, Canada), before its dilution into the recirculating external solution. The same LED was then used to continuously UV-illuminate the recirculating solution for the duration of the experiment. Whole-cell voltage clamp recordings were obtained from PNs and determined the change in membrane current produced by alternating blue and UV illumination of the slice, as in the FIG. 40 experiments. […] The temporal sequence of illumination differed among the experiments (e.g., only the cell in a received multiple blue/UV exposures), but the data plotted are the amplitudes from the blue to UV transition (in the case of the cell in a, this is the blue/UV transition from the first of the three exposures). Yellow-filled data points indicate results from the experiment in a. Each data point is the average obtained from 4-10 consecutive recordings. […] Error bars represent the SEM (FIG. 42b).

[3] = system: AMPAR/NMDAR-mediated EPSCs; experiment: AMPAR/NMDAR-mediated EPSCs in hippocampal CA1 pyramidal neurons; format: cell-based, mouse
Experimental: To test whether MPC088 affects excitatory synaptic transmission, whole-cell voltage-clamp recordings were carried out in CA1 pyramidal neurons of mouse hippocampus. As in the experiments of FIG. 42, these recordings were obtained with perfusion of the slice with cis-dominant MPC088 (30 μM) under recirculation. PTX […] was also included in the external solution to block GABAARs. EPSCs were evoked by stimulating the Schaffer collaterals with a bipolar matrix microelectrode (FHC, Inc., Bowdoin, Me.), and recorded at a holding potential of +40 mV to uncover the NMDA receptor (NMDAR) component of the EPSC. Paired electrical stimuli separated by 80 ms were also presented to assess possible effects of MPC088 on short-term plasticity. Each cell was […] 20 interleaved trials in which the cell was exposed to two 0.1-s UV pulses surrounding a 1-s period of either blue light or no light (FIG. 50). […] Each trace is the average of 10 traces with stimulus and shutter artifacts blanked for clarity. The black and grey asterisks indicate the time points, respectively, for the current measurements of the AMPAR- and NMDAR-mediated components. FIG. 50b depicts summary data including that shown in a. Plotted for the blue light and no blue light conditions are the average current amplitudes measured at the peak of the first EPSC (black bars), and just prior to the second stimulus (grey bars), as indicated by the asterisks in a.
To quantify the effects of MPC088 on AMPA receptors (AMPARs) and NMDARs, for the first EPSC of the pair, the peak current and the current just prior to the second stimulus were measured, which reflect AMPAR and NMDAR components, respectively, of the EPSC^41. […] Additionally, blue light had no significant effect on the decay of the compound current (average τ from single-exponential fitting to the decay of the second EPSC: Blue off, 131±11 ms; Blue on, 131±11 ms; p=0.89). There was also no significant effect of blue light on the paired-pulse ratio (PPR, measured as Peak(2nd EPSC)/Peak(1st EPSC): Blue off, 1.72±0.07; Blue on, 1.85±0.14; p=0.34).
Recordings from hippocampal CA1 pyramidal neurons were obtained from 17-23 day old animals. Briefly, the hippocampus was completely removed from the brain and then sliced in 300-μm sections. Prior to recording, a cut was made with a scalpel blade between CA1 and CA3 in order to completely sever all connections between the two; this was done in order to abolish polysynaptic activity due to antidromic activation of CA3 pyramidal cells. Recordings were carried out under voltage clamp with an internal solution containing (in mM): 130 CsCl, 10 HEPES, 1 CaCl2, 2 ATP, 0.2 GTP, 10 EGTA, and 5 QX-314 Br, and pH was adjusted to 7.3 with CsOH. All data from these experiments are presented as mean±SEM.

T1 sequence (P62813 28-455): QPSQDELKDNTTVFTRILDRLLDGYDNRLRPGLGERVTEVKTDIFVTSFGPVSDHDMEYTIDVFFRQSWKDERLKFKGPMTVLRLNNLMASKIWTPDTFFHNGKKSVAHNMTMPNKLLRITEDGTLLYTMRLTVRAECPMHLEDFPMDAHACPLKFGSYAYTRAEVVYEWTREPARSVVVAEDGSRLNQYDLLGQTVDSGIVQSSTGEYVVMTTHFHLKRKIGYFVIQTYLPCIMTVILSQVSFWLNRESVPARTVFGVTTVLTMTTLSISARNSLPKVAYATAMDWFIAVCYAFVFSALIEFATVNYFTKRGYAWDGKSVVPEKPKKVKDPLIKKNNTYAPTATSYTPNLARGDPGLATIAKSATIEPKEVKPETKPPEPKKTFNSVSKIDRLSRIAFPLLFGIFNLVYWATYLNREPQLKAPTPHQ
T1 sequence (P63138 25-474 limits assumed): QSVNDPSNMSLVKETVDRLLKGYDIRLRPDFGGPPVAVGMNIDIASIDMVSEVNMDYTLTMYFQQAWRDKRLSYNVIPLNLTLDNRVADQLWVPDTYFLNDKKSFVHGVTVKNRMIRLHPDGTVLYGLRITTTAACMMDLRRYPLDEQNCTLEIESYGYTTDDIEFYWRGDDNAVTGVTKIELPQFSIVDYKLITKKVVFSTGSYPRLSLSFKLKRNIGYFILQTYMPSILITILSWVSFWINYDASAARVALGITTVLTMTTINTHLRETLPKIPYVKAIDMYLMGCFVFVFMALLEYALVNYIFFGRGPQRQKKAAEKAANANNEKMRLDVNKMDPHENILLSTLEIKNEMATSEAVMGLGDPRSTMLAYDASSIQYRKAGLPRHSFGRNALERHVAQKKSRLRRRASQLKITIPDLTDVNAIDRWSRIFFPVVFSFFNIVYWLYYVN
T1 sequence (P18507 40-467 isoform P18507-1 limits assumed): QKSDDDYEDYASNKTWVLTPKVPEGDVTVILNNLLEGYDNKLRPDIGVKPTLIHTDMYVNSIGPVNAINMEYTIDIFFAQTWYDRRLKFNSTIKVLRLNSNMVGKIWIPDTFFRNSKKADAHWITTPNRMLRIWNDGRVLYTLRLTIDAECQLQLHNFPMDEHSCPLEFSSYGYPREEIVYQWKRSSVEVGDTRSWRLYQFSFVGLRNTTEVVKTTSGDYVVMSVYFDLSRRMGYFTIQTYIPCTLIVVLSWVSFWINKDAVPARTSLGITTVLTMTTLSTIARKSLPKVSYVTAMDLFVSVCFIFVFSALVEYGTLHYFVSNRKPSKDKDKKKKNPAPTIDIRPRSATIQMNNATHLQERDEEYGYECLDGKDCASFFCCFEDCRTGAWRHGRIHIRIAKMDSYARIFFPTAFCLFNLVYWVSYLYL

Compound: CC(C)c1cc(CCCC(=O)NCc2ccc(/N=N/c3ccc(C(=O)NCCN)cc3)cc2)cc(C(C)C)c1O [MPC088, (E)-N-(2-Aminoethyl)-4-((4-((4-(4-hydroxy-3,5-diisopropylphenyl)butanamido)methyl)phenyl)diazenyl)benzamide]
- GABAAR potentiating and direct agonist activities relative to parent propofol [1]: more than an order of magnitude
- rate constant 1/τ of UV-induced decrease in membrane current (de-potentiation) ([1]; 10-fold reduced UV intensity): 0.13 ± 0.02 s⁻¹
- rate constant 1/τ of UV-induced decrease in membrane current (de-potentiation) ([1]; nominal UV intensity): 0.43 ± 0.09 s⁻¹
- potentiation of the GABA response ([1]; co-applied 3 μM GABA, MPC088 1 μM, MPD021 10 or 100 μM, MPC100 10 μM): markedly potentiated the GABA response
- maximum current of direct activation relative to the 100 μM GABA response ([1]; compound alone): comparable with the peak current elicited by 100 μM GABA
- lowest concentration at which direct activation response is clearly evident ([1]; compound alone, no GABA): 4 µM
- potency in direct activation relative to propofol ([1]; concentrations required for peak current equal to 40% of the 100 μM GABA-alone response): ~25 fold
- average light-evoked current change ([2]; 30 μM recirculating, blue/UV illumination, subset of 28 of 44 cells with change >18 pA): 80±13 pA
- mode of action in cerebellar tissue ([2]; concentrations comparable to or lower than 30 μM): modulatory (endogenous GABA-dependent) rather than agonistic
- actions on AMPAR-mediated and NMDAR-mediated EPSCs ([3]; 30 μM): negligible actions on AMPAR-mediated and NMDAR-mediated EPSCs
- average τ of decay of the second EPSC ([3]; 30 μM MPC088, Blue off): 131 ± 11 ms
- paired-pulse ratio (PPR) ([3]; 30 μM MPC088, Blue off): 1.72±0.07
- average τ of decay of the second EPSC ([3]; 30 μM MPC088, Blue on): 131 ± 11 ms
- paired-pulse ratio (PPR) ([3]; 30 μM MPC088, Blue on): 1.85±0.14
